The source of these data is patent US20230405062A1, “GOS PRE-CONDITIONING L. REUTERI AND GOS IN FINAL FORMULATION” (BIOGAIA AB, priority 2021, published 2023).

One test concerns L. reuteri DSM 17938. As to the kind of experiment: Survival of L. reuteri in colon (qPCR), short SHIME model. Details: species or system Lactobacillus reuteri. As to conditions: for survival of L. reuteri in the colon in presence or absence of GOS: 48 h incubation, qPCR, FIG. 4A. From the text:
(§1) In this experiment, a simplified simulation of the continuous Simulator of the Human Microbial Ecosystem (SHIME®) was used. This SHIME® model has been extensively used for more than 20 years for both scientific and industrial projects and has been validated with in vivo parameters (see for example Van den Abbeele et al., Arabinoxylo-Oligosaccharides and Inulin Impact Inter-Individual Variation on Microbial Metabolism and Composition, Which Immunomodulates Human cells, J. Agric. Food chem. 2018, 66(5): 1121-1130).
For the current set of experiments a two-stage batch system mimicking the upper gastro-intestinal tract (Upper GIT, stomach and small intestine) and colonic conditions were used as simplified SHIME® system (FIG. 1). Cow milk-based toddler beverage, also called Growing-up-milk, containing minerals adapted for the age group was used in these studies.
Fresh fecal material was collected from an infant donor. Fecal suspension was prepared and mixed with a protectant. At the start of the short-term colonic incubation, the test ingredients (L. reuteri strain and Streptococcus thermophilus strain) were added to sugar-depleted nutritional medium containing basal nutrients present in the colon (e.g., host-derived glycans such as mucin).
L. reuteri strain and S. thermophilus strain were inoculated at 1×10^9 CFU/reactor. […]
(§2) L. reuteri strain and pre-conditioned L. reuteri strain were inoculated at 1x10^9 CFU/reactor. L. reuteri were quantified by plating on MRS medium, while S. thermophilus was plated on M17 medium supplemented with lactose. […] Quantities of L. reuteri and S. thermophilus powders were then calculated to target 1x10^9 CFU/colonic reactor. […]
(§3) Quantitative polymerase chain reaction (qPCR) was performed to selectively enumerate Lactobacilli and Streptococci. qPCR was performed at 0 h and after 48 h of colonic incubation.
On the technique in general: Real-time PCR tracks product formation cycle by cycle.

The next test relates to S. thermophilus NCC2496. Description: Survival of S. thermophilus in colon (qPCR), short SHIME model. Details: species or system Streptococcus thermophilus. As to conditions: 48 h incubation, FIG. 4A.
Description: as §1
For the current set of experiments a two-stage batch system mimicking the upper gastro-intestinal tract (Upper GIT, stomach and small intestine) and colonic conditions were used as simplified SHIME® system (FIG. 1). Cow milk-based toddler beverage, also called Growing-up-milk, containing minerals adapted for the age group was used in these studies. […]
as §2, §3

Turning to “Lactobacillus reuteri DSM 17938 [L. reuteri]”, the “survival of L. reuteri in the colon in presence or absence of GOS” value was “enhanced by the presence of GOS” with L. reuteri DSM 17938 and “positive effect of GOS” in the test with L. reuteri DSM 17938 (listed as L. reuteri DSM17938). Besides, in the test with L. reuteri DSM 17938 (cell counts at 48 h, FIG. 4B), the “survival of L. reuteri in the colon in presence of GOS, pre-conditioned vs non-pre-conditioned” value is “survives well”.
As for “Streptococcus thermophilus NCC2496 [S. thermophilus]”, the “survival of S. thermophilus in the colon in presence or absence of GOS” value is “impaired by the presence of GOS” in the test on S. thermophilus NCC2496 and “negative effect of GOS” with S. thermophilus NCC2496 (listed as Streptococcus thermophilus NCC2496).
